This passage reports CC50 and EC50 results from patent publication US10875876B2, “Cyclized sulfamoylarylamide derivatives and the use thereof as medicaments for the treatment of hepatitis B” (priority 2015, dated 2020).

A short description of data set [1]: Cytotoxicity in HepG2 cells, Resazurin assay. To be noted: human, HepG2 cells, TOX-HepG2-4 d CC50 (μM), HepG2 cells incubated for 4 days, viability by Resazurin assay.
In another data set the test system is HBV. The data set is described as follows: anti HBV activity, HepG2.117 cell line, intracellular HBV DNA by realtime PCR. The format is cell-based. Conditions: HepG2.117 cell line (Tet-off), 3 days of treatment, intracellular HBV DNA quantified by realtime PCR, read-out: HBV-AVE-HepG2.117 EC50. A digest of the protocol:
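HepG2.117 cells, a Tet-off line that replicates HBV without doxycycline, were induced and then treated in duplicate with serially diluted compound. After 3 days, intracellular HBV DNA was quantified by real-time PCR with an HBV-specific primer set and probe.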

Setting [2] is: Hepatitis B virus, HepG2.117, 72 h.

Molecules are shown by their SMILES. Read-outs that look alike come from different tables or passages of the source. Some results are limits rather than exact numbers.

`Cc1cc(NC(=O)c2c3c(cn2C)S(=O)(=O)N[C@@H](C(C)(C)O)CO3)ccc1F` [Compound 195, (3R)—N-(4-fluoro-3-methyl-phenyl)-3-(1-hydroxy-1-methyl-ethyl)-7-methyl-1,1-dioxo-3,4-dihydro-2H-pyrrolo[3,4-b][1,4,5]oxathiazepine-6-carboxamide] showed a CC50 at 4 days in data set [1] of over 25 µM. Also, the EC50 with HBV (setting [2]) is 7 nM.
`C[C@H](O)[C@H]1C=Cc2c(cn(C)c2C(=O)Nc2ccnc(Br)c2)S(=O)(=O)N1` [Compound 97, (3R)—N-(2-bromo-4-pyridyl)-3-[(1S)-1-hydroxyethyl]-7-methyl-1,1-dioxo-2,3-dihydropyrrolo[3,4-f]thiazepine-6-carboxamide]: the CC50 at 4 days in data set [1] is over 25 µM. Moreover, the EC50 with HBV (setting [2]) stood at 55 nM.
The matching figures for `Cn1cc2c(c1C(=O)Nc1ccc(F)c(C#N)c1)OC[C@](C)(Cc1ccccc1)NS2(=O)=O` [Compound 156, (3S)-3-benzyl-N-(3-cyano-4-fluoro-phenyl)-3,7-dimethyl-1,1-dioxo-2,4-dihydropyrrolo[3,4-b][1,4,5]oxathiazepine-6-carboxamide]: over 25 µM and 9 nM.
In the same order, the values of `CC(C)C1CCc2c(cn(C)c2C(=O)Nc2ccc(F)c(C(F)F)c2)S(=O)(=O)N1` (centres unmarked) [Compound 86, N-[3-(difluoromethyl)-4-fluoro-phenyl]-3-isopropyl-7-methyl-1,1-dioxo-2,3,4,5-tetrahydropyrrolo[3,4-f]thiazepine-6-carboxamide] are over 25 µM and 5 nM.
In data set [1], `Cn1cc2c(c1C(=O)Nc1ccc(F)c(F)c1)OC[C@@H](C(O)C(F)(F)F)NS2(=O)=O` (stereo partly drawn) [Compound 123, (3S)—N-(3,4-difluorophenyl)-7-methyl-1,1-dioxo-3-(2,2,2-trifluoro-1-hydroxy-ethyl)-3,4-dihydro-2H-pyrrolo[3,4-b][1,4,5]oxathiazepine-6-carboxamide] came in with a cytotoxic concentration (CC50) at 4 days of over 25 µM. For the same compound, the EC50 in the data set with HBV (setting [2]) was found to be 19 nM.
In the same order, the values of `Cn1cc2c(c1C(=O)Nc1ccc(F)c(F)c1)OCC(C(O)c1ccncc1)NS2(=O)=O` (centres unmarked) [Compound 183, N-(3,4-difluorophenyl)-3-[hydroxy(4-pyridyl)methyl]-7-methyl-1,1-dioxo-3,4-dihydro-2H-pyrrolo[3,4-b][1,4,5]oxathiazepine-6-carboxamide] are over 25 µM and 2 nM.
On to `C[C@H](O)[C@H]1CCc2c(cn(C)c2C(=O)Nc2ccc(F)c(F)c2)S(=O)(=O)N1` [Compound 88, (3R)—N-(3,4-difluorophenyl)-3-[(1S)-1-hydroxyethyl]-7-methyl-1,1-dioxo-2,3,4,5-tetrahydropyrrolo[3,4-f]thiazepine-6-carboxamide], for which, in data set [1], the CC50 at 4 days is over 25 µM. Also, in the data set with HBV (setting [2]), the EC50 was determined as 11 nM.
The matching figures for `Cc1cc(NC(=O)c2c3c(cn2C)S(=O)(=O)NC(C(C)C)CC3)ccc1F` (centres unmarked) [Compound 109, N-(4-fluoro-3-methyl-phenyl)-3-isopropyl-7-methyl-1,1-dioxo-2,3,4,5-tetrahydropyrrolo[3,4-f]thiazepine-6-carboxamide]: over 25 µM and 3 nM.
In turn, `CC1COc2c(cn(C)c2C(=O)Nc2ccc(F)c(F)c2)S(=O)(=O)N1` (single isomer, unassigned) [Compound 14a, N-(3,4-difluorophenyl)-3,7-dimethyl-1,1-dioxo-3,4-dihydro-2H-pyrrolo-[3,4-b][1,4,5]oxathiazepine-6-carboxamide] had a CC50 at 4 days in data set [1] of over 25 µM. For the same compound, the EC50 in the data set on HBV was found to be 250 nM.
Turning to `Cn1cc2c(c1C(=O)Nc1ccc(F)c(C#N)c1)C=CC1(COC1)NS2(=O)=O` [Compound 140, N-(3-cyano-4-fluoro-phenyl)-7-methyl-1,1-dioxo-spiro[2H-pyrrolo-[3,4-f]thiazepine-3,3′-oxetane]-6-carboxamide], the CC50 at 4 days in data set [1] was over 25 µM. In the data set on HBV (setting [2]), the EC50 stood at 62 nM.
The compound `CC1NS(=O)(=O)c2cn(C)c(C(=O)Nc3ccc(F)c(F)c3)c2OC1C` (centres unmarked) [Compound 28, N-(3,4-difluorophenyl)-3,4,7-trimethyl-1,1-dioxo-3,4-dihydro-2H-pyrrolo[3,4-b][1,4,5]oxathiazepine-6-carboxamide] had a CC50 at 4 days in data set [1] of over 25 µM. In addition, in the data set on HBV (setting [2]), the EC50 is 890 nM.
The matching figures for `Cn1cc2c(c1C(=O)Nc1ccc(F)c(F)c1)OCC(C(O)c1cccnc1)NS2(=O)=O` (centres unmarked) [Compound 95, N-(3,4-difluorophenyl)-3-[hydroxy(3-pyridyl)methyl]-7-methyl-1,1-dioxo-3,4-dihydro-2H-pyrrolo[3,4-b][1,4,5]oxathiazepine-6-carboxamide]: over 25 µM and 22 nM.
The matching figures for `C[C@H]1CCc2c(cn(C)c2C(=O)Nc2ccnc(C(F)(F)F)c2)S(=O)(=O)N1` (single isomer, unassigned) [Compound 53, (3*S)-3,7-dimethyl-1,1-dioxo-N-[2-(trifluoromethyl)-4-pyridyl]-2,3,4,5-tetrahydropyrrolo[3,4-f]thiazepine-6-carboxamide]: over 25 µM and 190 nM.
In the same order, the values of `CC(C)C1C=Cc2c(cn(C)c2C(=O)Nc2ccc(F)c(C(F)F)c2)S(=O)(=O)N1` (centres unmarked) [Compound 82, N-[3-(difluoromethyl)-4-fluoro-phenyl]-3-isopropyl-7-methyl-1,1-dioxo-2,3-dihydropyrrolo[3,4-f]thiazepine-6-carboxamide] are over 25 µM and 4 nM.
With `C[C@H](O)[C@H]1C=Cc2c(cn(C)c2C(=O)Nc2ccc(F)c(F)c2)S(=O)(=O)N1` [Compound 84, (3R)—N-(3,4-difluorophenyl)-3-[(1S)-1-hydroxyethyl]-7-methyl-1,1-dioxo-2,3-dihydropyrrolo[3,4-f]thiazepine-6-carboxamide], the CC50 at 4 days in data set [1] is over 25 µM. In addition, in the data set with HBV (setting [2]), the EC50 worked out at 10 nM.
Regarding `Cn1cc2c(c1C(=O)Nc1ccc(F)c(C#N)c1)CCC(C(C)(F)F)NS2(=O)=O` (centres unmarked) [Compound 118, N-(3-cyano-4-fluoro-phenyl)-3-(1,1-difluoroethyl)-7-methyl-1,1-dioxo-2,3,4,5-tetrahydropyrrolo[3,4-f]thiazepine-6-carboxamide], in data set [1], the CC50 at 4 days was over 25 µM. The EC50 in the data set on HBV (setting [2]) stood at 13 nM.
In the same order, the values of `Cc1cc(CC2(C)COc3c(cn(C)c3C(=O)Nc3ccc(F)c(F)c3)S(=O)(=O)N2)n(C)n1` (racemic) [Compound 175, N-(3,4-difluorophenyl)-3-[(2,5-dimethylpyrazol-3-yl)methyl]-3,7-dimethyl-1,1-dioxo-2,4-dihydropyrrolo[3,4-b][1,4,5]oxathiazepine-6-carboxamide] are over 25 µM and 4 nM.
The matching figures for `Cn1cc2c(c1C(=O)Nc1ccc(F)c(F)c1)OC[C@](C)(Cc1ccccc1)NS2(=O)=O` [Compound 155, (3S)-3-benzyl-N-(3,4-difluorophenyl)-3,7-dimethyl-1,1-dioxo-2,4-dihydropyrrolo[3,4-b][1,4,5]oxathiazepine-6-carboxamide]: over 25 µM and 25 nM.
In data set [1], `Cn1cc2c(c1C(=O)Nc1ccc(F)c(C#N)c1)OC[C@H](C(O)C1CC1)NS2(=O)=O` (stereo partly drawn) [Compound 120a, (3R)—N-(3-cyano-4-fluoro-phenyl)-3-[cyclopropyl(hydroxy)methyl]-7-methyl-1,1-dioxo-3,4-dihydro-2H-pyrrolo[3,4-b][1,4,5]oxathiazepine-6-carboxamide] registered a CC50 at 4 days of over 25 µM. In addition, the EC50 with HBV (setting [2]) amounted to 7 nM.
In data set [1], `Cn1cc2c(c1C(=O)Nc1ccc(F)c(F)c1)OCC1(COC1)NS2(=O)=O` [Compound 24, N-(3,4-difluorophenyl)-7-methyl-1,1-dioxo-spiro[2,4-dihydropyrrolo-[3,4-b][1,4,5]oxathiazepine-3,3′-oxetane]-6-carboxamide] returned a CC50 at 4 days of over 25 µM. Also, the EC50 in the data set with HBV (setting [2]) is 68 nM.
With `C[C@H]1C=Cc2c(cn(C)c2C(=O)Nc2ccnc(C(F)(F)F)c2)S(=O)(=O)N1` (single isomer, unassigned) [Compound 42, (3*S)-3,7-dimethyl-1,1-dioxo-N-[2-(trifluoromethyl)-4-pyridyl]-2,3-dihydropyrrolo[3,4-f]thiazepine-6-carboxamide], the CC50 at 4 days in data set [1] was over 25 µM. For the same compound, the EC50 in the data set with HBV (setting [2]) is 81 nM.
The matching figures for `CC1COc2c(ccc(F)c2C(=O)Nc2ccc(F)c(F)c2)S(=O)(=O)N1` (centres unmarked) [Compound 12, N-(3,4-difluorophenyl)-7-fluoro-3-methyl-1,1-dioxo-3,4-dihydro-2H-5,1λ^6,2-benzoxathiazepine-6-carboxamide]: over 25 µM and 350 nM.
As for `CO[C@H](C)[C@H]1COc2c(cn(C)c2C(=O)Nc2ccc(F)c(F)c2)S(=O)(=O)N1` [Compound 62, (3R)—N-(3,4-difluorophenyl)-3-[(1R)-1-methoxyethyl]-7-methyl-1,1-dioxo-3,4-dihydro-2H-pyrrolo[3,4-b][1,4,5]oxathiazepine-6-carboxamide], in data set [1], the CC50 at 4 days is over 25 µM. Besides, the EC50 with HBV (setting [2]) amounted to 9 nM.
In the same order, the values of `Cn1cc2c(c1C(=O)Nc1cc(F)c(F)c(F)c1)CCC1(COC1)NS2(=O)=O` [Compound 136, 7-methyl-1,1-dioxo-N-(3,4,5-trifluorophenyl)spiro[4,5-dihydro-2H-pyrrolo[3,4-f]thiazepine-3,3′-oxetane]-6-carboxamide] are over 25 µM and 16 nM.
The matching figures for `Cn1cc2c(c1C(=O)Nc1ccc(F)c(F)c1)OCC(C)(Cc1ccc(Cl)nc1)NS2(=O)=O` (centres unmarked) [Compound 197, 3-[(6-chloro-3-pyridyl)methyl]-N-(3,4-difluorophenyl)-3,7-dimethyl-1,1-dioxo-2,4-dihydropyrrolo[3,4-b][1,4,5]oxathiazepine-6-carboxamide]: over 25 µM and 11 nM.
